Source: patent US20090215708A1, “Treatment of Sexual Dysfunction with Proton Pump Agonists” (priority 2008, published 2009)

How the values were obtained:
[1] = test system: subject with sexual dysfunction related to penis size below the 10th percentile; assay: Daily oral cinchomeronic acid in a subject with penis size below the 10th percentile; assay type: in vivo, human
From the text: A subject who has reported long-term sexual dysfunction related to a penis size below the 10th percentile is given an oral formulation of cinchomeronic acid, at a daily dose sufficient to maintain therapeutic blood levels of the agent.

[2] = test system: proton pump (plasma membrane H+ ATPases); conditions: plants; cited from earlier work
[3] = test system: subject diagnosed with Female Sexual Arousal Disorder (FSAD); assay: Daily oral fusicoccin in a subject with Female Sexual Arousal Disorder; assay type: in vivo, human; conditions: daily oral formulation
From the text: A subject who has been diagnosed with Female Sexual Arousal Disorder (FSAD) for over 6 months is given a daily oral formulation of fusicoccin, at a dose sufficient to maintain therapeutic blood levels of the agent. […] The use of this preparation is well accepted by both the subject and partner.

| SMILES | adverse side effects [1] | penile circumference and length compared to before treatment ([1]; two months after beginning treatment) | proton pumping across the plasma membrane [2] | adverse side effects [3] | symptoms, including lubrication-swelling response during sexual activity ([3]; one week after beginning treatment) |
| --- | --- | --- | --- | --- | --- |
| O=C(O)c1ccncc1C(=O)O [cinchomeronic acid, 3,4-dicarboxypyridine] | no adverse side effects | measurable increase |  |  |  |
| C=CC(C)(C)OC[C@H]1O[C@H](O[C@@H]2C3=C([C@H](C)COC(C)=O)C[C@H](O)[C@]3(C)/C=C3/[C@@H](COC)CC[C@H]3[C@@H](C)[C@H]2O)[C@H](O)[C@@H](OC(C)=O)[C@@H]1O [fusicoccin] |  |  | activate | without adverse side effects | significant improvement in symptoms |
